These results are taken from publication PMC8518382, “Identification of a Bromodomain‐like Region in 15‐Lipoxygenase‐1 Explains Its Nuclear Localization” (Angewandte Chemie (International Ed. in English), 2021).

One experiment has as its target T1, 12-LOX (Homo sapiens, UniProt P18054).
T1 construct: the endogenous LOXs were captured on an anti‐LOX antibody precoated 96‐well plate; endogenous in cells; host or cells: A549 cell lysate
T1 sequence (P18054 1-663): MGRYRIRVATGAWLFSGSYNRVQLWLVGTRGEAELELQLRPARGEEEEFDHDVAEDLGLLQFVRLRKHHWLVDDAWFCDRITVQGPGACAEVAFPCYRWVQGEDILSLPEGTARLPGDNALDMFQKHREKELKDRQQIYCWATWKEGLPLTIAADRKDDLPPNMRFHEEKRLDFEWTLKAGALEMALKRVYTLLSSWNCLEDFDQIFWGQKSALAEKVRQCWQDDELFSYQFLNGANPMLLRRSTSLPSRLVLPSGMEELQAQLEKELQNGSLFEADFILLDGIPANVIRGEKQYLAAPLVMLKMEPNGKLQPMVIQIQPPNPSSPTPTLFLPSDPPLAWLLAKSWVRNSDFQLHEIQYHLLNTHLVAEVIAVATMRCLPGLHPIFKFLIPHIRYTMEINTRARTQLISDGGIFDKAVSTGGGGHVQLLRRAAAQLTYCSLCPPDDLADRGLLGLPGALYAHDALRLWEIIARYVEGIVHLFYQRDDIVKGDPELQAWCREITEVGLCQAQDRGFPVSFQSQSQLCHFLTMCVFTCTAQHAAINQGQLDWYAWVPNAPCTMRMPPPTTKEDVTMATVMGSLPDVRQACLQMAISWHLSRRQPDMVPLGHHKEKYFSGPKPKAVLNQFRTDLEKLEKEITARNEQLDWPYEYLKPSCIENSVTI
Briefly: Sandwich ELISA of Labelox B biotinylation in A549 cell lysate, 12-LOX capture. It is filed as biochemical. To be noted: HRP-streptavidin detection, read-out: EC50 of labeling. The procedure: Labelox B efficiently labels endogenous LOXs. Lipoxygenase labeling by Labelox B was investigated using cell‐based assays. As a first step, labeling efficiency was estimated in intact RAW 264.7 macrophage cells that were treated with Labelox B in concentrations ranging between 1 μM and 100 μM with incubation times between 0.5 h and 6 h. […] As a next step, a sandwich ELISA assay was established in order to find proof that probe Labelox B is indeed labeling proteins with lipoxygenase enzyme activity. Towards this aim, A549 cell lysates were treated with sub‐micromolar to micromolar concentrations of Labelox B. Subsequently, the endogenous LOXs were captured on an anti‐LOX antibody precoated 96‐well plate followed by detection of Labelox B mediated biotinylation using HRP‐conjugated streptavidin. […] Furthermore, probe Labelox B enabled visualization of localized LOX activity in living cells (Figure 2 c). […] The fluorescence intensity increased with increasing doses of Labelox B and labeling was observed throughout the cells in the cytoplasm and the nucleus of A549.
Figure 2 Labelox B labels endogenous LOXs in a dose‐ and time‐dependent manner. a, b) Western blot analysis of Labelox B labeled LOXs in intact RAW 264.7 for indicated doses and time points. […] The pictures were captured by a Leica DM4000b fluorescence microscope.
Background: ELISA stands for enzyme-linked immunosorbent assay.

The target of another experiment is T2, 15-LOX-1 (Homo sapiens, UniProt P16050).
T2 sequence (P16050 1-662): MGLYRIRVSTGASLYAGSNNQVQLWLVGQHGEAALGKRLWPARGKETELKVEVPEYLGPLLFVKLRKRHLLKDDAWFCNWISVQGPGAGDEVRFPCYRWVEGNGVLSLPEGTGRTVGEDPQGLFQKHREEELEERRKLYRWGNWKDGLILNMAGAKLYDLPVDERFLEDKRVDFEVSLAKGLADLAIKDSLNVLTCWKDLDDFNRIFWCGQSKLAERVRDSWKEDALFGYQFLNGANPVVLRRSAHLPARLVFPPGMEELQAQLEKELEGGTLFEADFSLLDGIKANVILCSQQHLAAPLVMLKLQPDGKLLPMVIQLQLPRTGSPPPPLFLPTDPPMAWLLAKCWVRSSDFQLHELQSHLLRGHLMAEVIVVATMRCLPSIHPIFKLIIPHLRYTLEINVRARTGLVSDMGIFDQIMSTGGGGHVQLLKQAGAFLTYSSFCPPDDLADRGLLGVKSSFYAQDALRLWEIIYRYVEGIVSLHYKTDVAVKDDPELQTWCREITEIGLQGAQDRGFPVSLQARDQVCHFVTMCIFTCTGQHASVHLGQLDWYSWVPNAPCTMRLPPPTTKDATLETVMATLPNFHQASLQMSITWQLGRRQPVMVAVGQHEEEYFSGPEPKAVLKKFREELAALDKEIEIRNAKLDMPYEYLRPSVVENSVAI
Briefly: Jump dilution assay on recombinant 15-LOX-1. It is filed as biochemical. Details: His-tag (N); made in house; host or cells: E. coli BL21(DE3). The following applies: 10 µM for 20 min at room temperature, then 100-fold dilution. The procedure: Figure S3. Labelox B labeled endogenous LOXs are immunoprecipitated by streptavidin beads. (A) A549 cell lysates were treated with. Labelox B. After labeling, free Labelox B was removed by Vivaspin
2. Labelox B labeled proteins were precipitated by Dynabeads and analyzed by Western blotting. (B) Uncropped Western blots for (A)
LOX-1 was incubated with Labelox B at 10 µM for 20min at room temperature to ensure 100% inhibition. Then, the enzyme/probe mixture was dilution 100-fold and employed for linoleic acid conversion. The group incubated with vehicle was condisered as positive control, while the group in […] of 15-LOX-1 was negative control. […]

With `CCCCCC#CCC#CCOC(=O)CCCC[C@@H]1SC[C@@H]2NC(=O)N[C@@H]21` [Labelox B (3)], at 12-LOX, the EC50 is approximately 3.5 µM. The “Reversibility of inhibition” value on 15-LOX-1 was “irreversibly inhibits”.

The EC50 is the concentration at which the effect is half-maximal.
